Measured values from PubChem BioAssay (NCI).
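Grown in 96-well plates, cells were treated for 48 hours with each compound at five concentrations. Insufficient inhibition: endpoint recorded as highest concentration tested. Abbreviation: GI50, concentration required for 50% inhibition of growth. TGI: total growth inhibition.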

Key:
Test in all cases: growth of human tumour cells (NCI), 48 h
786-0 renal = test system: 786-0 renal
A498 renal = test system: A498 renal
A549 NSCLC = test system: A549 NSCLC
ACHN renal = test system: ACHN renal
BT-549 breast = test system: BT-549 breast
CAKI-1 renal = test system: CAKI-1 renal
COLO 205 colon = test system: COLO 205 colon
DU-145 prostate = test system: DU-145 prostate
EKVX NSCLC = test system: EKVX NSCLC
HCC-2998 colon = test system: HCC-2998 colon
HCT-116 colon = test system: HCT-116 colon
HCT-15 colon = test system: HCT-15 colon
HL-60(TB) leukemia = test system: HL-60(TB) leukemia
HOP-62 NSCLC = test system: HOP-62 NSCLC
HOP-92 NSCLC = test system: HOP-92 NSCLC
HS 578T breast = test system: HS 578T breast
HT29 colon = test system: HT29 colon
IGROV1 ovarian = test system: IGROV1 ovarian
K-562 leukemia = test system: K-562 leukemia
KM12 colon = test system: KM12 colon
LOX IMVI melanoma = test system: LOX IMVI melanoma
M14 melanoma = test system: M14 melanoma
MALME-3M melanoma = test system: MALME-3M melanoma
MCF7 breast = test system: MCF7 breast
MDA-MB-231 breast = test system: MDA-MB-231 breast
MDA-MB-435 = test system: MDA-MB-435
MOLT-4 leukemia = test system: MOLT-4 leukemia
NCI-H226 lung = test system: NCI-H226 lung
NCI-H23 lung = test system: NCI-H23 lung
NCI-H460 lung = test system: NCI-H460 lung
NCI-H522 lung = test system: NCI-H522 lung
NCI/ADR-RES ovarian = test system: NCI/ADR-RES ovarian
OVCAR-3 ovarian = test system: OVCAR-3 ovarian
OVCAR-4 ovarian = test system: OVCAR-4 ovarian
OVCAR-5 ovarian = test system: OVCAR-5 ovarian
OVCAR-8 ovarian = test system: OVCAR-8 ovarian
PC-3 prostate = test system: PC-3 prostate
RPMI-8226 leukemia = test system: RPMI-8226 leukemia
RXF 393 renal = test system: RXF 393 renal
SF-268 CNS = test system: SF-268 CNS
SF-295 CNS = test system: SF-295 CNS
SF-539 CNS = test system: SF-539 CNS
SK-MEL-2 melanoma = test system: SK-MEL-2 melanoma
SK-MEL-28 melanoma = test system: SK-MEL-28 melanoma
SK-MEL-5 melanoma = test system: SK-MEL-5 melanoma
SK-OV-3 ovarian = test system: SK-OV-3 ovarian
SN12C renal = test system: SN12C renal
SNB-19 CNS = test system: SNB-19 CNS
SNB-75 CNS = test system: SNB-75 CNS
SR leukemia = test system: SR leukemia
SW-620 colon = test system: SW-620 colon
T-47D breast = test system: T-47D breast
TK-10 renal = test system: TK-10 renal
U251 CNS = test system: U251 CNS
UACC-257 melanoma = test system: UACC-257 melanoma
UACC-62 melanoma = test system: UACC-62 melanoma
UO-31 renal = test system: UO-31 renal

With `CN(CCCCCCCCNc1ccnc2ccccc12)Cc1ccc(-c2ccc(-c3ccc(C#N)cc3)s2)cc1` the GI50 (786-0 renal) was 1400 nM, the TGI (786-0 renal) was 3250 nM and the GI50 (A498 renal) was 1220 nM. It also gave a TGI (A498 renal) of 2600 nM, a GI50 (A549 NSCLC) of 1010 nM and a TGI (A549 NSCLC) of 2940 nM. The GI50 (ACHN renal) was 1280 nM, the TGI (ACHN renal) was 2550 nM and the GI50 (BT-549 breast) was 1440 nM. For the same molecule, the TGI (BT-549 breast) was 3200 nM, the GI50 (CAKI-1 renal) was 1300 nM and the TGI (CAKI-1 renal) was 2650 nM. The GI50 (COLO 205 colon) was 630 nM, the TGI (COLO 205 colon) was 2170 nM and the GI50 (DU-145 prostate) was 1040 nM. For the same molecule, the TGI (DU-145 prostate) was 2380 nM, the GI50 (EKVX NSCLC) was 827 nM and the TGI (EKVX NSCLC) was 2280 nM. The GI50 (HCC-2998 colon) was 275 nM, the TGI (HCC-2998 colon) was 1040 nM and the GI50 (HCT-116 colon) was 184 nM. The TGI (HCT-116 colon) was 537 nM, the GI50 (HCT-15 colon) was 266 nM and the TGI (HCT-15 colon) was 1370 nM. It also gave a GI50 (HL-60(TB) leukemia) of 1150 nM, a TGI (HL-60(TB) leukemia) of 2930 nM and a GI50 (HOP-62 NSCLC) of 685 nM. For the same molecule, the TGI (HOP-62 NSCLC) was 2500 nM, the GI50 (HOP-92 NSCLC) was 337 nM and the TGI (HOP-92 NSCLC) was 2530 nM. For the same molecule, the GI50 (HS 578T breast) was 1750 nM, the TGI (HS 578T breast) was 3860 nM and the GI50 (HT29 colon) was 318 nM. For the same molecule, the TGI (HT29 colon) was 1770 nM, the GI50 (IGROV1 ovarian) was 1400 nM and the TGI (IGROV1 ovarian) was 3020 nM. For the same molecule, the GI50 (K-562 leukemia) was 17.2 nM, the TGI (K-562 leukemia) was 107 nM and the GI50 (KM12 colon) was 667 nM. It also gave a TGI (KM12 colon) of 2170 nM, a GI50 (LOX IMVI melanoma) of 164 nM and a TGI (LOX IMVI melanoma) of 310 nM. It also gave a GI50 (M14 melanoma) of 443 nM, a TGI (M14 melanoma) of 1560 nM and a GI50 (MALME-3M melanoma) of 903 nM. For the same molecule, the TGI (MALME-3M melanoma) was 2210 nM, the GI50 (MCF7 breast) was 183 nM and the TGI (MCF7 breast) was 533 nM. It also gave a GI50 (MDA-MB-231 breast) of 1460 nM, a TGI (MDA-MB-231 breast) of 3060 nM and a GI50 (MDA-MB-435) of 1190 nM. For the same molecule, the TGI (MDA-MB-435) was 2500 nM, the GI50 (MOLT-4 leukemia) was 368 nM and the TGI (MOLT-4 leukemia) was 2510 nM. It also gave a GI50 (NCI-H226 lung) of 1170 nM, a TGI (NCI-H226 lung) of 3170 nM and a GI50 (NCI-H23 lung) of 840 nM. The TGI (NCI-H23 lung) was 2420 nM, the GI50 (NCI-H460 lung) was 367 nM and the TGI (NCI-H460 lung) was 1250 nM. The GI50 (NCI-H522 lung) was 1350 nM, the TGI (NCI-H522 lung) was 3360 nM and the GI50 (NCI/ADR-RES ovarian) was 1200 nM. For the same molecule, the TGI (NCI/ADR-RES ovarian) was 3230 nM, the GI50 (OVCAR-3 ovarian) was 647 nM and the TGI (OVCAR-3 ovarian) was 2070 nM. The GI50 (OVCAR-4 ovarian) was 139 nM, the TGI (OVCAR-4 ovarian) was 1990 nM and the GI50 (OVCAR-5 ovarian) was 1390 nM. It also gave a TGI (OVCAR-5 ovarian) of 2730 nM, a GI50 (OVCAR-8 ovarian) of 1020 nM and a TGI (OVCAR-8 ovarian) of 4500 nM. For the same molecule, the GI50 (PC-3 prostate) was 766 nM, the TGI (PC-3 prostate) was 2300 nM and the GI50 (RPMI-8226 leukemia) was 164 nM. It also gave a TGI (RPMI-8226 leukemia) of 571 nM, a GI50 (RXF 393 renal) of 1130 nM and a TGI (RXF 393 renal) of 2540 nM. The GI50 (SF-268 CNS) was 1600 nM, the TGI (SF-268 CNS) was 3450 nM and the GI50 (SF-295 CNS) was 501 nM. The TGI (SF-295 CNS) was 1260 nM, the GI50 (SF-539 CNS) was 797 nM and the TGI (SF-539 CNS) was 2230 nM. It also gave a GI50 (SK-MEL-2 melanoma) of 1850 nM, a TGI (SK-MEL-2 melanoma) of 3830 nM and a GI50 (SK-MEL-28 melanoma) of 1650 nM. It also gave a TGI (SK-MEL-28 melanoma) of 3060 nM, a GI50 (SK-MEL-5 melanoma) of 890 nM and a TGI (SK-MEL-5 melanoma) of 2170 nM. It also gave a GI50 (SK-OV-3 ovarian) of 1650 nM, a TGI (SK-OV-3 ovarian) of 3270 nM and a GI50 (SN12C renal) of 1370 nM. It also gave a TGI (SN12C renal) of 3000 nM, a GI50 (SNB-19 CNS) of 1310 nM and a TGI (SNB-19 CNS) of 2790 nM. For the same molecule, the GI50 (SNB-75 CNS) was 1350 nM, the TGI (SNB-75 CNS) was 2680 nM and the GI50 (SR leukemia) was 83 nM. For the same molecule, the TGI (SR leukemia) was 350 nM, the GI50 (SW-620 colon) was 178 nM and the TGI (SW-620 colon) was 432 nM. It also gave a GI50 (T-47D breast) of 881 nM, a TGI (T-47D breast) of 3160 nM and a GI50 (TK-10 renal) of 1570 nM. For the same molecule, the TGI (TK-10 renal) was 3180 nM, the GI50 (U251 CNS) was 248 nM and the TGI (U251 CNS) was 842 nM. For the same molecule, the GI50 (UACC-257 melanoma) was 482 nM, the TGI (UACC-257 melanoma) was 1600 nM and the GI50 (UACC-62 melanoma) was 1530 nM. It also gave a TGI (UACC-62 melanoma) of 2920 nM, a GI50 (UO-31 renal) of 1230 nM and a TGI (UO-31 renal) of 2570 nM.
